Results on 7 compounds are retold here after patent US7449461B2, “Benzathiazol-acetamides” (Hoffmann-La Roche Inc., priority 2004, dated 2008).

In data set [1] the target is T1, human adenosine A2A receptor (Homo sapiens, UniProt P29274).
T1 construct: expressed in transfected cells; host or cells: CHO cells, Semliki Forest virus expression system; washed membrane preparation
The data set can be described thus: [3H]-SCH-58261 binding assay on human adenosine A2A receptor membranes (SPA). Conditions: recombinant receptor expressed in CHO cells, radioligand [3H]-SCH-58261 1 nM, Ki by Cheng-Prussoff equation from IC50; for Ki: read-out: hA2 (pKi) (converted). The protocol:
Human Adenosine A2A Receptor
The human adenosine A2A receptor was recombinantly expressed in Chinese hamster ovary (CHO) cells using the semliki forest virus expression system. Cells were harvested, washed twice by centrifugation, homogenized and again washed by centrifugation. The final washed membrane pellet was suspended in a Tris (50 mM) buffer containing 120 mM NaCl, 5 mM KCl, 2 mM CaCl2 and 10 mM MgCl2 (pH 7.4) (buffer A). The [^3H]-SCH-58261 (Dionisotti et al., 1997, Br J Pharmacol 121, 353; 1 nM) binding assay was carried out in 96-well plates in the presence of 2.5 μg of membrane protein, 0.5 mg of Ysi-poly-1-lysine SPA beads and 0.1 U adenosine deaminase in a final volume of 200 μl of buffer A. Non-specific binding was defined using xanthine amine congener (XAC; 2 μM). Compounds were tested at 10 concentrations from 10 μM-0.3 nM. All assays were conducted in duplicate and repeated at least two times. Assay plates were incubated for 1 hour at room temperature before centrifugation and then bound ligand determined using a Packard Topcount scintillation counter. IC50 values were calculated using a non-linear curve fitting program and Ki values calculated using the Cheng-Prussoff equation.

One may read the melting point as the temperature of the solid-liquid transition.

T1 sequence (P29274 whole entry): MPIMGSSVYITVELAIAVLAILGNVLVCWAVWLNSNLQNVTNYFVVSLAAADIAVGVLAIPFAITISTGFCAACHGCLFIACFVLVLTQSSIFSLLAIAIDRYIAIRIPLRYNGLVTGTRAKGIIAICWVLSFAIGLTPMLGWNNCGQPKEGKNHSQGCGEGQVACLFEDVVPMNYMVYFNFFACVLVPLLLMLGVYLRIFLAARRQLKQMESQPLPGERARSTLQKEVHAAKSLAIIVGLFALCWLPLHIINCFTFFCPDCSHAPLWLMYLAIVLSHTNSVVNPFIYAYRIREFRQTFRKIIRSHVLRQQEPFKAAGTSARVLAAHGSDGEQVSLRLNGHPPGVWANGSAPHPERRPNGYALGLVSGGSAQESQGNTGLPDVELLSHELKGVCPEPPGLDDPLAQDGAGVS

`COc1ccc(N2CCOCC2)c2sc(NC(=O)C[C@H]3CC[C@@H](O)C3)nc12` (single isomer, unassigned) [Example 3, (−)-(cis)-2-(3-Hydroxy-cyclopentyl)-N-(4-methoxy-7-morpholin-4-yl-benzothiazol-2-yl)-acetamide]: the melting point was in the range of 168 to 171 °C. Moreover, in data set [1], the Ki is 6.31 nM.
For the compound `COc1ccc(N2CCOCC2)c2sc(NC(=O)C[C@H]3CC[C@@H](O)CC3)nc12` [Example 5, (cis)-2-(4-Hydroxy-cyclohexyl)-N-(4-methoxy-7-morpholin-4-yl-benzothiazol-2-yl)-acetamide], the melting point lay in the range of 212 to 216 °C. The Ki in data set [1] was 6.31 nM.
In turn, `COc1ccc(N2CCOCC2)c2sc(NC(=O)C[C@H]3CC[C@H](O)CC3)nc12` [Example 6, (trans)-2-(4-Hydroxy-cyclohexyl)-N-(4-methoxy-7-morpholin-4-yl-benzothiazol-2-yl)-acetamide] came in with a melting point of 190 to 192 °C. In addition, the Ki in data set [1] was 3.16 nM.
In turn, `COc1ccc(N2CCOCC2)c2sc(NC(=O)C[C@H]3CC[C@@H](O)C3)nc12` (single isomer, unassigned) [Example 4, (+)-(cis)-2-(3-Hydroxy-cyclopentyl)-N-(4-methoxy-7-morpholin-4-yl-benzothiazol-2-yl)-acetamide] yielded a melting point of 167 to 170 °C. Also, the “hA2 (pKi)” value in data set [1] is recorded as 8.2.
As for `COc1ccc(N2CCOCC2)c2sc(NC(=O)C(C)C34CCC(CC3)O4)nc12` (racemic) [Example 7, (rac)-N-(4-Methoxy-7-morpholin-4-yl-benzothiazol-2-yl)-2-(7-oxa-bicyclo[2.2.1]hept-1-yl)-propionamide], the melting point is 195 to 197 °C. The Ki in data set [1] was 20 nM.
The corresponding values for `COc1ccc(N2CCOCC2)c2sc(NC(=O)C[C@H]3CC[C@@H](OC(C)=O)C3)nc12` (single isomer, unassigned) [Example 2, (cis)-2-(3-Acetoxy-cyclopentyl)-N-(4-methoxy-7-morpholin-4-yl-benzothiazol-2-yl)-acetamide] are 172 to 173 °C and 6.31 nM.
Take `COc1ccc(N2CCOCC2)c2sc(NC(=O)C[C@H]3CC[C@@H](OC(C)=O)C3)nc12` (single isomer, unassigned) [Example 1, (cis)-2-(3-Acetoxy-cyclopentyl)-N-(4-methoxy-7-morpholin-4-yl-benzothiazol-2-yl)-acetamide]: the melting point was 171 to 172 °C. The Ki in data set [1] was 10 nM.
